Measured values reported in patent US12427160B2, “Use of cannabinoids in the treatment of epilepsy” (Jazz Pharmaceuticals Research UK Limited, priority 2014, dated 2025).

Legend:
seizures [1] = conditions: 200 mg/day of pure CBD, open label, twelve institutionalized adult patients; cited from earlier work
[2] = tested on: children and young adults with severe, childhood onset treatment-resistant epilepsy (TRE); experiment: Expanded access compassionate use program: 50% responders after 12 weeks of CBD added to baseline AED; type: in vivo, human; conditions: 12 weeks of treatment
Lennox-Gastaut syndrome = conditions: CBD in an oily solution, a child with Lennox-Gastaut syndrome; cited from earlier work
seizures [3] = conditions: 200 mg/day of pure CBD, four adult patients; cited from earlier work
seizures in mice = conditions: after pro-convulsant drugs or an electric current; cited from earlier work
generalized epilepsy = conditions: eight adult patients with generalized epilepsy; cited from earlier work
[4] = Solubility of the drug substance in water; type: physicochemical
Text: Sesame oil was selected as an excipient to solubilize the drug substance.

[5] = in vivo; cited from earlier work

SMILES	control of seizures (seizures [1])	<50% reduction in seizures, proportion of patients, absence seizures ([2]; absence seizures (n = 28)) [%]	>50% reduction in seizures, proportion of patients, absence seizures ([2]; absence seizures (n = 28)) [%]	<50% reduction in seizures, proportion of patients, clonic seizures ([2]; clonic seizures (n = 8)) [%]	>50% reduction in seizures, proportion of patients, clonic seizures ([2]; clonic seizures (n = 8)) [%]	<50% reduction in seizures, proportion of patients, myoclonic seizures ([2]; myoclonic seizures (n = 30)) [%]	>50% reduction in seizures, proportion of patients, myoclonic seizures ([2]; myoclonic seizures (n = 30)) [%]	<50% reduction in seizures, proportion of patients, tonic seizures ([2]; tonic seizures (n = 45)) [%]	>50% reduction in seizures, proportion of patients, tonic seizures ([2]; tonic seizures (n = 45)) [%]	<50% reduction in seizures, proportion of patients, tonic-clonic seizures ([2]; tonic-clonic seizures (n = 65)) [%]	>50% reduction in seizures, proportion of patients, tonic-clonic seizures ([2]; tonic-clonic seizures (n = 65)) [%]	<50% reduction in seizures, proportion of patients, total seizures ([2]; total seizures (n = 137))	seizure frequency (Lennox-Gastaut syndrome)	seizure freedom / seizure frequency (seizures [3])	prevention of seizures (seizures in mice)	reduction of seizures (generalized epilepsy)	solubility in water [4]	pro-convulsant effect [5]
C=C(C)[C@@H]1CCC(C)=C[C@H]1c1c(O)cc(CCCCC)cc1O [CBD, Cannabidiol]	ineffective in controlling seizures	36	64	50	50	57	43	51	49	37	43	54% (n = 74)	improvement in seizure frequency	two of the four patients became seizure free	able to prevent seizures in mice	marked reduction of seizures in 4 of the patients	insoluble in water	
CCCCCc1cc(O)c2c(c1)OC(C)(C)[C@@H]1CCC(C)=C[C@@H]21 [THC, Tetrahydrocannabinol]																		pro-convulsant
